Source: ChEMBL document CHEMBL5143624, “WCK 1152, WCK 1153: Discovery and structure activity relationship for the treatment of resistant pneumococcal and staphylococcal respiratory infections” (Bioorg Med Chem Lett, 2022)
≈ marks a conversion by molar mass, not a printed value.

Key:
Staphylococcus aureus [1] = experiment: Antibacterial activity against methicillin resistant Staphylococcus aureus 5076 harbouring DNA gyrase and topoisomerase IV mutant and efflux pump assessed as inhibition of bacterial growth incubated for 18 hrs in presence of efflux inhibitor by CLSI based serial agar dilution method; format: functional
Staphylococcus aureus [2] = experiment: Antibacterial activity against methicillin resistant Staphylococcus aureus 032 assessed as inhibition of bacterial growth incubated for 18 hrs by CLSI based serial agar dilution method; format: functional
Streptococcus pneumoniae [3] = experiment: Antibacterial activity against beta-lactams, macrolide and fluoroquinolone resistant Streptococcus pneumoniae 718 infected in po dosed Swiss mouse septicemia model assessed as protective dose administered on 1 and 5 hrs post infection and measured on day 7; format: functional, organism-based
Staphylococcus aureus [4] = experiment: Antibacterial activity against methicillin resistant Staphylococcus aureus assessed as inhibition of bacterial growth incubated for 18 hrs by CLSI based serial agar dilution method; format: functional
Streptococcus pneumoniae [5] = experiment: Antibacterial activity against beta-lactams, macrolide and fluoroquinolone resistant Streptococcus pneumoniae 718 assessed as inhibition of bacterial growth incubated for 18 hrs by CLSI based serial agar dilution method; format: functional
Staphylococcus aureus [6] = experiment: Antibacterial activity against Staphylococcus aureus […] assessed as inhibition of bacterial growth incubated for 18 hrs by CLSI based serial agar dilution method; format: functional
Streptococcus pneumoniae [7] = experiment: Antibacterial activity against Streptococcus pneumoniae assessed as inhibition of bacterial growth incubated for 18 hrs by CLSI based serial agar dilution method; format: functional
Streptococcus pneumoniae [8] = experiment: Antibacterial activity against Streptococcus pneumoniae 5844 harbouring moxifloxacin resistant DNA gyrase and topoisomerase IV mutant assessed as inhibition of bacterial growth incubated for 18 hrs by CLSI based serial agar dilution method; format: functional; settings: Streptococcus pneumoniae, 5844, 18 h
Streptococcus pneumoniae [9] = experiment: Antibacterial activity against fluoroquinolone efflux positive Streptococcus pneumoniae 706 assessed as inhibition of bacterial growth incubated for 18 hrs by CLSI based serial agar dilution method; format: functional
Staphylococcus aureus [10] = experiment: Antibacterial activity against methicillin resistant Staphylococcus aureus 5076 assessed as inhibition of bacterial growth incubated for 18 hrs by CLSI based serial agar dilution method; format: functional
[11] = Mutagenicity in Swiss mouse assessed as chromosomal aberration in bone marrow cells at 400 mg/kg, po measured after 24 hrs relative to control; format: toxicity, organism-based; settings: in vivo
[12] = Induction of drug resistance in methicillin resistant Staphylococcus aureus assessed as increase in MIC measured after 10 passages (reference value: 0.4 ug/ml); format: functional
[13] = Staphylococcus aureus, 032, 18 h, read-out: MIC
[14] = Staphylococcus aureus, read-out: MIC
[15] = Streptococcus pneumoniae, 718, 18 h, read-out: MIC
[16] = Streptococcus pneumoniae, 18 h, read-out: MIC

`COc1c(N2CC[C@H](N)C(C)(C)C2)c(F)cc2c(=O)c(C(=O)O)cn(C3CC3)c12` gave an MIC (Staphylococcus aureus [1]) of 1.56 µg/mL, an MIC (Staphylococcus aureus [2]; [13]) of 0.8 µg/mL (≈ 1.98 µM) and an EC50 (Streptococcus pneumoniae [3]) of 50 mg/kg. For the same molecule, the MIC (Staphylococcus aureus [4]; [14]) was 0.05 µg/mL (≈ 0.124 µM), the MIC (Streptococcus pneumoniae [5]; [15]) was 0.8 µg/mL (≈ 1.98 µM) and the MIC (Staphylococcus aureus [6]) was 0.05 µg/mL (≈ 0.124 µM).

`CONC1CCN(c2c(F)cc3c(=O)c(C(=O)O)cn(C4CC4)c3c2OC)CC1(C)C` (configuration not stated) gave an MIC (Streptococcus pneumoniae [7]; [16]) of 0.8 µg/mL (≈ 1.85 µM), an MIC (Streptococcus pneumoniae [8]) greater than 6.25 µg/mL and an MIC (Streptococcus pneumoniae [9]) of 0.8 µg/mL (≈ 1.85 µM). It also gave an MIC (Staphylococcus aureus [4]; [14]) of 0.1 µg/mL (≈ 0.231 µM).

With `CCC1CN(c2c(F)cc3c(=O)c(C(=O)O)cn(C4CC4)c3c2OC)CCC1NC` (configuration not stated) the MIC (Streptococcus pneumoniae [7]; [16]) was 1.56 µg/mL (≈ 3.74 µM) and the MIC (Staphylococcus aureus [4]; [14]) was 0.2 µg/mL (≈ 0.479 µM).

With `CC1(C)CN(c2cc3c(cc2F)c(=O)c(C(=O)O)cn3C2CC2)CCC1N` (configuration not stated) the MIC (Streptococcus pneumoniae [7]; [16]) was 0.8 µg/mL (≈ 2.14 µM) and the MIC (Staphylococcus aureus [4]; [14]) was 12.5 µg/mL (≈ 33.5 µM).

With `COc1c(N2CCC(N(C)C)C(C)(C)C2)c(F)cc2c(=O)c(C(=O)O)cn(C3CC3)c12` (configuration not stated) the MIC (Streptococcus pneumoniae [7]; [16]) was 0.4 µg/mL (≈ 0.927 µM) and the MIC (Staphylococcus aureus [4]; [14]) was 0.2 µg/mL (≈ 0.463 µM).

With `COc1c(N2CCC(N)C(C)C2)c(F)cc2c(=O)c(C(=O)O)cn(C3CC3)c12` (configuration not stated) the MIC (Streptococcus pneumoniae [7]; [16]) was 0.2 µg/mL (≈ 0.514 µM) and the MIC (Staphylococcus aureus [4]; [14]) was 0.05 µg/mL (≈ 0.128 µM).

`CCNC1CCN(c2c(F)cc3c(=O)c(C(=O)O)cn(C4CC4)c3c2OC)CC1(C)C` (configuration not stated) showed an MIC (Streptococcus pneumoniae [7]; [16]) of 1.56 µg/mL (≈ 3.62 µM), an MIC (Streptococcus pneumoniae [9]) of 1.56 µg/mL (≈ 3.62 µM) and an MIC (Staphylococcus aureus [4]; [14]) of 0.2 µg/mL (≈ 0.463 µM).

Molecule `COc1c(N2CC(C)C(N)C(C)C2)c(F)cc2c(=O)c(C(=O)O)cn(C3CC3)c12` (cis isomer) has an MIC (Staphylococcus aureus [4]) of 0.1 µg/mL (≈ 0.248 µM).

For `Cc1c(N2CCC(N)C(C)C2)c(F)cc2c(=O)c(C(=O)O)cn(C3CC3)c12.Cl` (cis isomer), the EC50 (Streptococcus pneumoniae [3]) was 30 mg/kg.

`Cc1c(N2CCC(N)C(C)(C)C2)c(F)cc2c(=O)c(C(=O)O)cn(C3CC3)c12` (racemic) gave an MIC (Staphylococcus aureus [2]; 18 h) of 1.56 µg/mL (≈ 4.03 µM) and an MIC (Streptococcus pneumoniae [5]; 18 h) of 1.56 µg/mL (≈ 4.03 µM).

Work on `Cc1c(N2CCC(N)C(C)(C)C2)c(F)cc2c(=O)c(C(=O)O)cn(C3CC3)c12.Cl` (racemic) yielded an EC50 (Streptococcus pneumoniae [3]) of 30 mg/kg.

Work on `Cc1c(N2CCC(O)C(C)(C)C2)c(F)cc2c(=O)c(C(=O)O)cn(C3CC3)c12.Cl` (racemic) yielded an MIC (Staphylococcus aureus [2]; [13]) of 0.8 µg/mL and an MIC (Streptococcus pneumoniae [5]; [15]) of 0.8 µg/mL.

In the case of `Cc1c(N2CCC(O)C(C)(C)C2)c(F)cc2c(=O)c(C(=O)O)cn(C3CC3)c12` (single isomer, unassigned; (+)), the MIC (Staphylococcus aureus [1]) is reported as 0.2 µg/mL, the MIC (Staphylococcus aureus [2]; [13]) is reported as 0.2 µg/mL (≈ 0.515 µM) and the MIC (Streptococcus pneumoniae [5]; [15]) is reported as 0.2 µg/mL (≈ 0.515 µM). The MIC (Staphylococcus aureus [6]) was 0.003 µg/mL (≈ 0.00772 µM) and the MIC (Staphylococcus aureus [10]) was 0.2 µg/mL (≈ 0.515 µM).

`Cc1c(N2CCC(N)C(C)(C)C2)c(F)cc2c(=O)c(C(=O)O)cn(C3CC3)c12` (single isomer, unassigned; (-)) gave an MIC (Staphylococcus aureus [1]) of 0.8 µg/mL, an MIC (Staphylococcus aureus [2]; 18 h) of 0.4 µg/mL (≈ 1.03 µM) and an EC50 (Streptococcus pneumoniae [3]) of 20 mg/kg. For the same molecule, the MIC (Streptococcus pneumoniae [5]; 18 h) was 0.4 µg/mL (≈ 1.03 µM) and the MIC (Staphylococcus aureus [10]) was 0.8 µg/mL (≈ 2.06 µM).

Work on `COc1c(N2CCC(N)C(C)(C)C2)c(F)cc2c(=O)c(C(=O)O)cn(C3CC3)c12` (single isomer, unassigned; (-)) yielded an Activity [11] of 3.8%.

With `COc1c(N2CC(C)C(N)C(C)C2)c(F)cc2c(=O)c(C(=O)O)cn(C3CC3)c12` (stereo in doubt) the MIC (Streptococcus pneumoniae [7]; [16]) was 0.1 µg/mL (≈ 0.248 µM) and the MIC (Staphylococcus aureus [4]; [14]) was 0.1 µg/mL (≈ 0.248 µM).

With `CCNC1C(C)CN(c2c(F)cc3c(=O)c(C(=O)O)cn(C4CC4)c3c2OC)CC1C` (stereo in doubt) the MIC (Streptococcus pneumoniae [7]) was 1.56 µg/mL (≈ 3.62 µM) and the MIC (Staphylococcus aureus [4]) was 0.2 µg/mL (≈ 0.463 µM).

`Cc1c(N2CCC(O)C(C)C2)c(F)cc2c(=O)c(C(=O)O)cn(C3CC3)c12` (stereo in doubt; form 1) showed an MIC (Staphylococcus aureus [2]; [13]) of 0.2 µg/mL (≈ 0.534 µM) and an MIC (Streptococcus pneumoniae [5]; [15]) of 0.2 µg/mL (≈ 0.534 µM).

With `COc1c(N2CCC(N)C(C)(C)C2)c(F)cc2c(=O)c(C(=O)O)cn(C3CC3)c12` (stereo in doubt; form 1) the MIC (Staphylococcus aureus [1]) was 1.56 µg/mL, the Activity [11] was 5.83% and the MIC (Staphylococcus aureus [2]; [13]) was 0.6 µg/mL (≈ 1.49 µM). It also gave an EC50 (Streptococcus pneumoniae [3]) of 30 mg/kg and an MIC (Staphylococcus aureus [4]; [14]) of 0.05 µg/mL (≈ 0.124 µM).

With `Cc1c(N2CCC(O)C(C)C2)c(F)cc2c(=O)c(C(=O)O)cn(C3CC3)c12` (stereo in doubt; form 2) the MIC (Staphylococcus aureus [2]) was 0.2 µg/mL (≈ 0.534 µM) and the MIC (Streptococcus pneumoniae [5]) was 0.2 µg/mL (≈ 0.534 µM).

Molecule `COc1c(N2CCC(N)C(C)(C)C2)c(F)cc2c(=O)c(C(=O)O)cn(C3CC3)c12` (stereo in doubt; form 2) has an Activity [11] of 12%.

In the case of `COc1c(N2CC(C)C(N)C(C)C2)c(F)cc2c(=O)c(C(=O)O)cn(C3CC3)c12` (trans isomer), the MIC (Streptococcus pneumoniae [7]; 18 h) is reported as 0.2 µg/mL (≈ 0.496 µM) and the MIC (Staphylococcus aureus [4]) is reported as 0.05 µg/mL (≈ 0.124 µM).

Molecule `CCNC1C(C)CN(c2c(F)cc3c(=O)c(C(=O)O)cn(C4CC4)c3c2OC)CC1C` (trans isomer) has an MIC (Streptococcus pneumoniae [7]; [16]) of 1.56 µg/mL (≈ 3.62 µM) and an MIC (Staphylococcus aureus [4]) of 0.012 µg/mL (≈ 0.0278 µM).

In the case of `Cc1c(N2CCC(N)C(C)C2)c(F)cc2c(=O)c(C(=O)O)cn(C3CC3)c12` (trans isomer), the MIC (Staphylococcus aureus [2]; [13]) is reported as 0.8 µg/mL (≈ 2.14 µM).

Molecule `COc1c(N2CCNC(C)C2)c(F)cc2c(=O)c(C(=O)O)cn(C3CC3)c12` (configuration not stated) [GATIFLOXACIN] has an EC50 (Streptococcus pneumoniae [3]) greater than 100 mg/kg.

In the case of `C[C@H]1COc2c(N3CCN(C)CC3)c(F)cc3c(=O)c(C(=O)O)cn1c23.C[C@H]1COc2c(N3CCN(C)CC3)c(F)cc3c(=O)c(C(=O)O)cn1c23.O` [LEVOFLOXACIN], the MIC (Staphylococcus aureus [2]; [13]) is reported as 6.25 µg/mL and the EC50 (Streptococcus pneumoniae [3]) is reported as greater than 100 mg/kg.

For `C[C@H]1CCc2c(N3CCC(O)CC3)c(F)cc3c(=O)c(C(=O)O)cn1c23` [LEVONADIFLOXACIN], the MIC (Streptococcus pneumoniae [7]; [16]) was 0.4 µg/mL (≈ 1.11 µM) and the MIC (Staphylococcus aureus [4]; [14]) was 0.4 µg/mL (≈ 1.11 µM).

In the case of `COc1c(N2C[C@@H]3CCCN[C@@H]3C2)c(F)cc2c(=O)c(C(=O)O)cn(C3CC3)c12` [MOXIFLOXACIN], the MIC [12] is reported as 6.25 µg/mL and the EC50 (Streptococcus pneumoniae [3]) is reported as greater than 100 mg/kg.

With `CC1COc2c(N3CCN(C)CC3)c(F)cc3c(=O)c(C(=O)O)cn1c23` (configuration not stated) [OFLOXACIN] the MIC (Streptococcus pneumoniae [7]; [16]) was 0.4 µg/mL (≈ 1.11 µM) and the MIC (Staphylococcus aureus [4]; [14]) was 0.4 µg/mL (≈ 1.11 µM).
